Measurements: patent publication US8741350B2, “Taste masked pharmaceutical composition” (Boehringer Ingelheim Vetmedica GmbH, priority 2011, dated 2014)
Read-outs that look alike come from different tables or passages of the source.

Columns and labels:
[1] = Water solubility (statement); type: physicochemical
[2] = Lipophilicity profile (statement); type: physicochemical; settings: neutral versus acidic pH
[3] = background statement; cited from earlier work

| water solubility in words [1] | SMILES | lipophilicity profile in words [2] | water solubility in words [3] |
| --- | --- | --- | --- |
| water soluble | CC#CCn1c(N2CCC[C@@H](N)C2)nc2c1c(=O)n(Cc1ncccc1C#N)c(=O)n2C.Cl [1-[(3-cyano-pyridin-2-yl)methyl]-3-methyl-7-(2-butyn-1-yl)-8-[3-(R)-amino-piperidin-1-yl]-xanthine monohydrochloride] |  |  |
|  | COc1ccc(CCN2CCC[C@H](CN3CCc4cc(OC)c(OC)cc4CC3=O)C2)cc1OC.Cl [cilobradine hydrochloride] | slightly more lipophilic at neutral pH values | highly water-soluble |
|  | COc1ccc(CCN2CCC[C@H](CN3CCc4cc(OC)c(OC)cc4CC3=O)C2)cc1OC [Cilobradine] |  | highly water-soluble |
